Test results from patent US7348425B2, “Inhibitors of HCV replication” (Bristol-Myers Squibb Company, priority 2004, dated 2008).

What was measured:
HCV replicon = HCV replicon FRET assay; format: cell-based; conditions: Hepatitis C virus; FRET assay; read-out: EC50
Method: The IC50 values for compounds were determined using seven different [I]. IC50 values were calculated from the inhibition using the formula y=A+((B−A)/(1+((C/x)^D))). FRET Assay Preparation. To perform the HCV FRET screening assay, 96-well cell culture plates were used. The FRET peptide (Anaspec, Inc.) (Taliani et al., Anal. Biochem. 240:60-67 (1996), hereby incorporated by reference in its entirety) contains a fluorescence donor, EDANS, near one end of the peptide and an acceptor, DABCYL, near the other end. The fluorescence of the peptide is quenched by […] resonance energy transfer (RET) between the donor and the acceptor, but as the NS3 protease cleaves the peptide the products are released from RET quenching and the fluorescence of the donor becomes apparent. The assay reagent was made as follows: 5× cell Luciferase cell culture lysis reagent from Promega (#E153A) diluted to 1× with dH2O, NaCl added to 150 mM final, the FRET peptide diluted to 20 uM final from a 2 mM stock.
To prepare plates, HCV replicon cells, with or without a Renilla luciferase reporter gene, were trypsinized and placed into each well of a 96-well plate with titrated test compounds added in columns 3 through 12; columns 1 and 2 contained a control compound (HCV protease inhibitor), and the bottom row contained cells without compound. The plates were then placed in a CO2 incubator at 37 degrees C.
Assays. Subsequent to addition of the test compounds described above (FRET Assay Preparation), at various times the plate was removed and Alamar blue solution (Trek Diagnostics, #00-100) was added per well as a measure of cellular toxicity. After reading in a Cytoflour 4000 instrument (PE Biosystems), plates were rinsed with PBS and then used for FRET assay by the addition of 30 ul of the FRET peptide assay reagent described above (FRET Assay Preparation) per well. The plate was then placed into the Cytoflour 4000 instrument which had been set to 340 excite/490 emission, automatic mode for 20 cycles and the plate read in a kinetic mode. Typically, the signal to noise using an endpoint analysis after the reads was at least three-fold. Alternatively, after Alamar blue reading, plates were rinsed with PBS, 50 ul of DMEM (high glucose) without phenol red was added and plates were then used for luciferase assay using the Promega Dual-Glo Luciferase Assay System.
Compound analysis was determined by quantification of the relative HCV replicon inhibition and the relative cytotoxicity values. To calculate cytoxicity values, the average Alamar Blue fluorescence signals from the control wells were set as 100% non-toxic. The individual signals in each of the compound test wells were then divided by the average control signal and multiplied by 100% to determine […]. To calculate the HCV replicon inhibition values, an average background value was obtained from the two wells containing the highest amount of HCV protease inhibitor at the end of the assay period. These numbers were similar to those obtained from naïve Huh-7 cells.
The background numbers were then subtracted from the average signal obtained from the control wells and this number was used as 100% activity. The individual signals in each of the compound test wells were then divided by the averaged control values after background subtraction and multiplied by 100% to determine percent activity. EC50 values for a protease inhibitor titration were calculated as the concentration which caused a 50% reduction in FRET or luciferase activity. The two numbers generated for the compound plate, percent cytoxicity and percent activity were used to determine compounds of interest for further analysis.

[1] = target: T1, HCV NS5B RdRp genotype 1b (Hepatitis C virus genotype 1b, UniProt Q9WMX2); assay: Modified HCV NS5B RdRp enzyme assay (with preincubation); format: biochemical
T1 construct: The protein was expressed with an 18 amino acid C-terminal truncation to enhance the solubility; made in house; host or cells: E. coli BL21 (DE3), pET21a
Method: HCVNS5B RdRp cloning, expression, and purification. The cDNA encoding the NS5B protein of HCV, genotype 1b, was cloned into the pET21a expression vector. The protein was expressed with an 18 amino acid C-terminal truncation to enhance the solubility. The E. coli competent cell line BL21 (DE3) was used for expression of the protein. Cultures were grown at 37° C. for ˜4 hours until the cultures reached an optical density of 2.0 at 600 nm. The cultures were cooled to 20° C. and induced with 1 mM IPTG. Fresh ampicillin was added to a final concentration of 50 μg/ml and the cells were grown overnight at 20° C.
Cell pellets (3 L) were lysed for purification to yield 15-24 mgs of purified NS5B. The lysis buffer consisted of 20 mM Tris-HCl, pH 7.4, 500 mM NaCl, 0.5% triton X-100, 1 mM DTT, 1 mM EDTA, 20% glycerol, 0.5 mg/ml lysozyme, 10 mM MgCl2, 15 ug/ml deoxyribonuclease I, and Complete TM protease inhibitor tablets (Roche). After addition of the lysis buffer, frozen cell pellets were resuspended using a tissue homogenizer. To reduce the viscosity of the sample, aliquots of the lysate were sonicated on ice using a microtip attached to a Branson sonicator. The sonicated lysate was centrifuged at 100,000×g for 1 hr at 4° C. and filtered through a 0.2 μm filter unit (Corning).
The protein was purified using three sequential chromatography steps: Heparin sepharose CL-6B, polyU sepharose 4B, and Hitrap SP sepharose (Pharmacia). The chromatography buffers were identical to the lysis buffer but contained no lysozyme, deoxyribonuclease I, MgCl2 or protease inhibitor and the NaCl concentration of the buffer was adjusted according to the requirements for charging the protein onto the column. Each column was eluted with a NaCl gradient which varied in length from 5-50 column volumes depending on the column type. After the final chromatography step, the resulting purity of the enzyme is >90% based on SDS-PAGE analysis. The enzyme was aliquoted and stored at −80° C.
Standard HCV NS5B RdRp enzyme assay. HCV RdRp genotype Ib assays were run in a final volume of 60 μl in 96 well plates (Costar 3912). The assay buffer is composed of 20 mM Hepes, pH 7.5, 2.5 mM KCl, 2.5 mM MgCl2, 1 mM DTT, 1.6 U RNAse inhibitor (Promega N2515), 0.1 mg/ml BSA (Promega R3961), and 2% glycerol. All compounds were serially diluted (3-fold) in DMSO and diluted further in water such that the final concentration of DMSO in the assay was 2%. HCV RdRp genotype 1b enzyme was used at a final concentration of 28 nM. A polyA template was used at 6 nM, and a biotinylated oligo-dT12 primer was used at 180 nM final concentration. Template was obtained commercially (Amersham 27-4110). Biotinylated primer was prepared by Sigma Genosys. ^3H-UTP was used at 0.6 μCi (0.29 μM total UTP). Reactions were initiated by the addition of enzyme, incubated at 30° C. for 60 min, and stopped by adding 25 μl of 50 mM EDTA containing SPA beads (4 μg/μl, Amersham RPNQ 0007). Plates were read on a Packard Top Count NXT after >1 hr incubation at room temperature.
Modified HCV NS5B RdRp enzyme assay. A modified enzyme assay was performed essentially as described for the standard enzyme assay except for the following: The biotinylated oligo dT12 primer was precaptured on streptavidin-coated SPA beads by mixing primer and beads in assay buffer and incubating at room temperature for one hour. Unbound primer was removed after centrifugation. The primer-bound beads were resuspended in 20 mM Hepes buffer, pH 7.5 and used in the assay at final concentrations of 20 nM primer and 0.67 μg/μl beads. Order of addition in the assay: enzyme (14 nM) was added to diluted compound followed by the addition of a mixture of template (0.2 nM), ^3H-UTP (0.6 μCi, 0.29 μM), and primer-bound beads, to initiate the reaction; concentrations given are final. Reactions were allowed to proceed for 4 hours at 30° C.
The IC50 values for compounds were determined using seven different [I]. […]

[2] = modified method (with preincubation)

T1 sequence (Q9WMX2 2420-2992): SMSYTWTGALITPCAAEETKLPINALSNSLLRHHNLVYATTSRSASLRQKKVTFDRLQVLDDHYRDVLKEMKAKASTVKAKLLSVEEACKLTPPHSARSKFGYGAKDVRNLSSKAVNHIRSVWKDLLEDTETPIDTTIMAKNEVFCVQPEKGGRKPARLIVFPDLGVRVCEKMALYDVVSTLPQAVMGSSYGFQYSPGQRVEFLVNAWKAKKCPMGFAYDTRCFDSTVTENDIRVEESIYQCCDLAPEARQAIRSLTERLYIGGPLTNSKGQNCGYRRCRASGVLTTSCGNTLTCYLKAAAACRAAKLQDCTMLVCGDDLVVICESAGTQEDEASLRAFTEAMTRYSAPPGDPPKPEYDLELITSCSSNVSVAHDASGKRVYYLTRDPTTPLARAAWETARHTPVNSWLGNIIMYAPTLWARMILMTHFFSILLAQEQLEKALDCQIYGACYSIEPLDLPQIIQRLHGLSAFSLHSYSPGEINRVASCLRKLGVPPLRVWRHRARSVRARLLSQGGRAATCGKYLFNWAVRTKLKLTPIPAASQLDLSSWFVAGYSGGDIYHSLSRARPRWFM

| Structure (SMILES) | EC50 (HCV replicon) [nM] | IC50 ([1]; preincubation protocol) [nM] | IC50 [1, 2] [nM] |
| --- | --- | --- | --- |
| COc1cc2c(cn1)-c1c(C3CCCCC3)c3ccc(C(=O)NS(=O)(=O)N(C)C)cc3n1CC(C(=O)N1C[C@@H](C)O[C@@H](C)C1)=C2 | > 1000 | 1000 to 10000 |  |
| COc1ccc2c(c1)CC(C(=O)N(C)CCO)Cn1c-2c(C2CCCCC2)c2ccc(C(=O)NS(=O)(=O)N(C)C)cc21 (stereo not drawn) | 50 to 1000 | 10 to 1000 |  |
| COC(=O)C1=Cc2cc(Cl)ccc2-c2c(C3CCCCC3)c3ccc(C(=O)OC)cc3n2C1 | 1000 to 10000 |  | > 1000 |
| O=C(O)/C=C/c1ccc(NC(=O)C2(NC(=O)c3ccc4c(C5CCCCC5)c5n(c4c3)CC(C(=O)N3CCC(N4CCCC4)CC3)Cc3ccccc3-5)CCCC2)cc1 (stereo not drawn) | 10 to 1000 |  | 20 to 1000 |
| COC(=O)c1ccc2c(C3CCCCC3)c3n(c2c1)CC(C(=O)O)=Cc1ccc(Cl)cc1-3 | 1000 to 10000 |  | > 1000 |
| C[C@@H]1CN(C(=O)C2=Cc3ccccc3-c3c(C4CCCCC4)c4ccc(C(=O)NC5(C(=O)Nc6ncc(-c7ccc(C(=O)O)cc7)s6)CCCC5)cc4n3C2)C[C@H](C)O1 | 50 to 1000 | 10 to 1000 |  |
| COC(=O)c1ccc2c(C3CCCCC3)c3n(c2c1)CC(C(=O)N1C[C@@H](C)O[C@@H](C)C1)=Cc1cc(F)ccc1-3 | 1000 to 10000 | > 1000 |  |
| O=C(O)c1ccc2c(C3CCCCC3)c3n(c2c1)CC(CO)Cc1ccccc1-3 (stereo not drawn) | 1000 to 10000 |  | 20 to 1000 |
| CCS(=O)(=O)NC(=O)c1ccc2c(C3CCCCC3)c3n(c2c1)CC(C(=O)N1CCOCC1)Cc1ccccc1-3 (stereo not drawn) | 10 to 1000 |  | 20 to 1000 |
| COc1ccc2c(c1)CC(C(=O)N(CCO)CCO)Cn1c-2c(C2CCCCC2)c2ccc(C(=O)NS(=O)(=O)N(C)C)cc21 (stereo not drawn) | 50 to 1000 | 10 to 1000 |  |
| O=C(O)c1ccc2c(C3CCCCC3)c3n(c2c1)CC(C(=O)N1CCOCC1)Cc1ccncc1-3 (stereo not drawn) | 10 to 1000 |  | 20 to 1000 |
| COc1ccc2c(c1)C=C(C(=O)N(C)CCO)Cn1c-2c(C2CCCCC2)c2ccc(C(=O)NS(=O)(=O)N(C)C)cc21 | 50 to 1000 | < 20 |  |
| COC(=O)C1=Cc2cc(OCc3ccccc3)ccc2-c2c(C3CCCCC3)c3ccc(C(=O)NS(=O)(=O)N(C)C)cc3n2C1 | 10 to 1000 |  | 20 to 1000 |
| COC(=O)c1ccc2c(C3CCCCC3)c3n(c2c1)CC(O)Cc1ccccc1-3 (stereo not drawn) | 10 to 1000 |  | > 1000 |
| O=C(O)c1ccc2c(c1)C1CCN(C(=O)N3CCOCC3)c3ccccc3C1=C2C1CCCCC1 (stereo not drawn) | 1000 to 10000 |  | > 1000 |
| O=C(O)c1ccc2c(C3CCCCC3)c3n(c2c1)CC(C(=O)N1CCCOCC1)=Cc1ccccc1-3 | 10 to 1000 |  | 20 to 1000 |
| O=C(NS(=O)(=O)Cc1ccccc1)c1ccc2c(C3CCCCC3)c3n(c2c1)CC=Cc1ncccc1-3 | 1000 to 10000 |  | 20 to 1000 |

| Structure (SMILES) | EC50 (HCV replicon) [nM] | IC50 ([1]; preincubation protocol) [nM] | IC50 [1, 2] [nM] |
| --- | --- | --- | --- |
| CCN(CC)C(=O)C1=Cc2ccccc2-c2c(C3CCCCC3)c3ccc(C(=O)NS(=O)(=O)N(C)C)cc3n2C1 | 10 to 1000 |  | 20 to 1000 |
| CS(=O)(=O)NC(=O)c1ccc2c(C3CCCCC3)c3n(c2c1)CCNc1ccccc1-3 | 10 to 1000 |  | 20 to 1000 |
| COc1ccc2c(c1O)C(O)n1c-2c(C2CCCCC2)c2ccc(C(=O)NS(=O)(=O)N(C)C)cc21 (stereo not drawn) | > 100 | 1000 to 10000 |  |
| COC(=O)c1ccc2c(C3CCCCC3)c3n(c2c1)CNc1ccccc1-3 | 10 to 1000 |  | > 1000 |
| CN(C)S(=O)(=O)NC(=O)c1ccc2c(C3CCCCC3)c3n(c2c1)C[C@H](C(=O)N1CCC(N2CCCC2)CC1)Cc1ccccc1-3 | 10 to 1000 |  | 20 to 1000 |
| CC(C)(C)OC(=O)N1CCn2c(c(C3CCCCC3)c3ccc(C(=O)O)cc32)-c2ccccc21 | 1000 to 10000 |  | 20 to 1000 |
| NC(=O)C1(NC(=O)c2ccc3c(C4CCCCC4)c4n(c3c2)CC(=O)Nc2ccccc2-4)CCCC1 | 10 to 1000 |  | 20 to 1000 |
| COC(=O)c1ccc2c(C3CCCCC3)c3n(c2c1)C(O)c1cc(Cl)ccc1-3 (stereo not drawn) | 10 to 1000 |  | > 1000 |
| C[C@@H]1CN(C(=O)C2=Cc3ccccc3-c3c(C4CCCCC4)c4ccc(C(=O)NC5(C(=O)O)CCCC5)cc4n3C2)C[C@H](C)O1 | 50 to 1000 | 10 to 1000 |  |
| C[C@@H]1CN(C(=O)C2=Cc3cc(F)ccc3-c3c(C4CCCCC4)c4ccc(C(=O)O)cc4n3C2)C[C@H](C)O1 | 50 to 1000 | 10 to 1000 |  |
| COC(=O)c1ccc2c(C3CCCCC3)c3n(c2c1)CC(C(=O)N1CCCOCC1)=Cc1ccccc1-3 | 1000 to 10000 |  | > 1000 |
| O=C(NS(=O)(=O)c1ccccc1)c1ccc2c(C3CCCCC3)c3n(c2c1)CC(C(=O)N1CCOCC1)Cc1ccccc1-3 (stereo not drawn) | 10 to 1000 |  | 20 to 1000 |
| COc1ccc2c(c1)C(=O)n1c-2c(C2CCCCC2)c2ccc(C(=O)NS(=O)(=O)N(C)C)cc21 | 1000 to 10000 | 10 to 1000 |  |
| C[C@@H]1CN(C(=O)C2=Cc3ccccc3-c3c(C4CCCCC4)c4ccc(C(=O)NS(=O)(=O)N(C)C)cc4n3C2)C[C@H](C)O1 | 10 to 1000 |  | 20 to 1000 |
| O=C(O)c1ccc2c(C3CCCCC3)c3n(c2c1)C(C(=O)N1CCOCC1)CNc1ccccc1-3 (stereo not drawn) | 1000 to 10000 | > 1000 |  |
| O=C(O)c1ccc2c(C3CCCCC3)c3n(c2c1)CCN(C(=O)NC1CCCC1)c1ccccc1-3 | 10 to 1000 |  | 20 to 1000 |
